Source: patent US20050112033A1, “Multi-well containers, systems, and methods of using the same” (IRM, LLC, priority 2003, published 2005)
Each block holds one molecule with its values, some of them ahead of it.

Assays:
[1] = literature value; cited from earlier work
[2] = Equilibrium dialysis plasma protein binding in a multi-well container; type: in vitro ADME; details: human plasma vs buffer, 37° C. with gentle shaking, LC/MS detection
Protocol: This example illustrates equilibrium dialysis assays that were performed in a multi-well container of the invention to measure small molecule drug binding to plasma proteins. The assays included filling one well of a pair of wells that communicated via a chamber having a membrane disposed therein with human plasma and the other well of the pair with buffer. The assay included filling multiple pairs of wells in this manner. Each of the small molecules was dispensed into different wells containing plasma. The entire multi-well container was then heated at 37° C. with gentle shaking. […] Binding percentages were determined following detection using liquid chromatography/mass spectrometry.

Compound: CN(C)CCCN1c2ccccc2CCc2ccccc21 [Imipramine]
- Plasma binding percentage stated in the literature [1]: 95%
- Human plasma binding percentage obtained in a multi-well container of the invention [2]: 95%

Compound: Cn1c(=O)c2[nH]cnc2n(C)c1=O [Theophylline]
- Plasma binding percentage stated in the literature [1]: 56%

Compound: CCCCNC(=O)NS(=O)(=O)c1ccc(C)cc1 [Tolbutamide]
- Plasma binding percentage stated in the literature [1]: 96%

Now from value to molecule, other results behind:

- Human plasma binding percentage obtained in a multi-well container of the invention [2]: >99%
Compound: Cc1c(O)cccc1C(=O)N[C@@H](CSc1ccccc1)[C@H](O)CN1C[C@H]2CCCC[C@H]2C[C@H]1C(=O)NC(C)(C)C [Nelfinavir]
- Plasma binding percentage stated in the literature [1]: >98%

- Human plasma binding percentage obtained in a multi-well container of the invention [2]: 91%
Compound: CC(C)NCC(O)COc1cccc2ccccc12 (stereo not shown) [Propranolol]
- Plasma binding percentage stated in the literature [1]: 93%

- Human plasma binding percentage obtained in a multi-well container of the invention [2]: 65%
Compound: COc1cc(Cc2cnc(N)nc2N)cc(OC)c1OC [Trimethoprim]
- Plasma binding percentage stated in the literature [1]: 44%
